Our source for the IC50 values is patent US10934285B2, “Compounds and compositions for inhibiting the activity of SHP2” (Novartis AG, priority 2016, dated 2021).

For this assay, the target named is SHP2 (Homo sapiens (Human), UniProt Q06124). The assay can be described thus: SHP2 Allosteric Inhibition Assay. The format is biochemical. The note with it: 0.5 nM SHP2 activated with 0.5 μM peptide IRS1_pY1172(dPEG8)pY1222; surrogate substrate DiFMUP; prompt fluorescence. The text has this:
SHP2 Allosteric Inhibition Assay
SHP2 is allosterically activated through binding of bis-tyrosyl-phorphorylated peptides to its Src Homology 2 (SH2) domains. The latter activation step leads to the release of the auto-inhibitory interface of SHP2, which in turn renders the SHP2 protein tyrosine phosphatase (PTP) active and available for substrate recognition and reaction catalysis. The catalytic activity of SHP2 was monitored using the surrogate substrate DiFMUP in a prompt fluorescence assay format.
After 30-60 minutes incubation at 25° C., the surrogate substrate DiFMUP (Invitrogen, cat #D6567) was added to the reaction and incubated at 25° C. for 30 minutes. […] The inhibitor dose response curves were analyzed using normalized IC50 regression curve fitting with control based normalization.

SHP2, sequence (Q06124 whole entry): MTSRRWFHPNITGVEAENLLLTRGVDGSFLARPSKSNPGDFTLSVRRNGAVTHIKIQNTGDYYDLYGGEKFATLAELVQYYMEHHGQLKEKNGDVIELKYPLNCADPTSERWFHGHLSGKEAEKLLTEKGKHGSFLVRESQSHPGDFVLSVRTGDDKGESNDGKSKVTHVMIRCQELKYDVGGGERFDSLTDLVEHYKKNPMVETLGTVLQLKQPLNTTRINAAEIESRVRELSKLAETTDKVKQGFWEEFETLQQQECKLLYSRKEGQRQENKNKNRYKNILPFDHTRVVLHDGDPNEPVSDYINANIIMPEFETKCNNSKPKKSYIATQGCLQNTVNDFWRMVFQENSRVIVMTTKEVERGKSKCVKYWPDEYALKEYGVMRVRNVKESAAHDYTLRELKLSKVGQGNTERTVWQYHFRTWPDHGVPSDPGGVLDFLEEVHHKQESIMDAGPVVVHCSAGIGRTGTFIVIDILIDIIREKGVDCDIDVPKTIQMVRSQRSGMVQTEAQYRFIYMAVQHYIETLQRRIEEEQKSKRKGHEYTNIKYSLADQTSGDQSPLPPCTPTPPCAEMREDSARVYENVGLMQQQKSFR

As to `Nc1nc(N2CCC3(CC2)COC[C@H]3N)cnc1Sc1cccc(NC(=O)c2c(O)nc3n(c2=O)CCCC3)c1Cl` [Example 26, (S)—N-(3-((3-Amino-5-(4-amino-2-oxa-8-azaspiro[4.5]decan-8-yl)pyrazin-2-yl)thio)-2-chlorophenyl)-2-hydroxy-4-oxo-6,7,8,9-tetrahydro-4H-pyrido[1,2-a]pyrimidine-3-carboxamide], it took 18 nM to reach half-maximal inhibition (IC50).

`C[C@@H]1OCC2(CCN(c3cnc(Sc4cccc(NC(=O)c5c(O)nc6n(c5=O)CCCC6)c4Cl)c(N)n3)CC2)[C@@H]1N` [Example 27, N-(3-((3-Amino-5-((3S,4S)-4-amino-3-methyl-2-oxa-8-azaspiro[4.5]decan-8-yl)pyrazin-2-yl)thio)-2-chlorophenyl)-2-hydroxy-4-oxo-6,7,8,9-tetrahydro-4H-pyrido[1,2-a]pyrimidine-3-carboxamide] came in with an IC50 of 23 nM.

Take `Nc1nc(N2CCC3(CC2)CC(F)(F)C[C@H]3N)cnc1Sc1cccc(NC(=O)c2c(O)nc3n(c2=O)CCCC3)c1Cl` [Example 28, (R)-N-(3-((3-amino-5-(1-amino-3,3-difluoro-8-azaspiro[4.5]decan-8-yl)pyrazin-2-yl)thio)-2-chlorophenyl)-2-hydroxy-4-oxo-6,7,8,9-tetrahydro-4H-pyrido[1,2-a]pyrimidine-3-carboxamide]: it took 42 nM to reach half-maximal inhibition (IC50).

For the compound `CC[C@@H]1OCC2(CCN(c3cnc(Sc4cccc(NC(=O)c5c(O)nc6n(c5=O)CCCC6)c4Cl)c(N)n3)CC2)[C@@H]1N` [Example 29, N-(3-((3-amino-5-((3S,4S)-4-amino-3-ethyl-2-oxa-8-azaspiro[4.5]decan-8-yl)pyrazin-2-yl)thio)-2-chlorophenyl)-2-hydroxy-4-oxo-6,7,8,9-tetrahydro-4H-pyrido[1,2-a]pyrimidine-3-carboxamide], the IC50 is 12 nM.

In turn, `C[C@@H]1CC2(CCN(c3cnc(Sc4cccc(NC(=O)c5c(O)nc6n(c5=O)CCCC6)c4Cl)c(N)n3)CC2)[C@H](N)[C@H]1F` [Example 30, N-(3-((3-amino-5-((1S,2S,3R)-1-amino-2-fluoro-3-methyl-8-azaspiro[4.5]decan-8-yl)pyrazin-2-yl)thio)-2-chlorophenyl)-2-hydroxy-4-oxo-6,7,8,9-tetrahydro-4H-pyrido[1,2-a]pyrimidine-3-carboxamide] gave an IC50 of 16 nM.

As for `CC1(CN)CCN(c2nnc(Sc3cccc(NC(=O)c4c(O)nc5ccccc5c4O)c3Cl)c(N)n2)CC1` [Example 31, N-(3-((5-amino-3-(4-(aminomethyl)-4-methylpiperidin-1-yl)-1,2,4-triazin-yl)thio)-2-chlorophenyl)-2,4-dihydroxyquinoline-3-carboxamide], the IC50 was found to be 38 nM.

With `CC1(CN)CCN(c2nnc(Sc3cccc(NC(=O)c4c(O)nc5sccn5c4=O)c3Cl)c(N)n2)CC1` [Example 32, N-(3-((5-amino-3-(4-(aminomethyl)-4-methylpiperidin-1-yl)-1,2,4-triazin-6-yl)thio)-2-chlorophenyl)-7-hydroxy-5-oxo-5H-thiazolo[3,2-a]pyrimidine-6-carboxamide], the IC50 came out at 8 nM.

For `CC1(CN)CCN(c2nnc(Sc3cccc(NC(=O)c4c(O)nc5ccccn5c4=O)c3Cl)c(N)n2)CC1` [Example 33, N-(3-((5-amino-3-(4-(aminomethyl)-4-methylpiperidin-1-yl)-1,2,4-triazin-6-yl)thio)-2-chlorophenyl)-2-hydroxy-4-oxo-4H-pyrido[1,2-a]pyrimidine-3-carboxamide], the midpoint of inhibition, the IC50, lay at 10 nM.

In turn, `CC1(CN)CCN(c2nnc(Sc3cccc(NC(=O)c4c(O)nc5cnccn5c4=O)c3Cl)c(N)n2)CC1` [Example 34, N-(3-((5-amino-3-(4-(aminomethyl)-4-methylpiperidin-1-yl)-1,2,4-triazin-6-yl)thio)-2-chlorophenyl)-2-hydroxy-4-oxo-4H-pyrazino[1,2-a]pyrimidine-3-carboxamide] displayed a concentration for half-maximal inhibition (IC50) of 14 nM.

The compound `CC1(CN)CCN(c2nnc(Sc3cccc(NC(=O)c4c(O)nc5[nH]ccn5c4=O)c3Cl)c(N)n2)CC1` [Example 35, N-(3-((5-amino-3-(4-(aminomethyl)-4-methylpiperidin-1-yl)-1,2,4-triazin-6-yl)thio)-2-chlorophenyl)-7-hydroxy-5-oxo-1,5-dihydroimidazo[1,2-a]pyrimidine-6-carboxamide] returned an IC50 of 35 nM.

`CC1(CN)CCN(c2nnc(Sc3cccc(NC(=O)c4c(O)nc5n(c4=O)CCCC5)c3Cl)c(N)n2)CC1` [Example 36, N-(3-((5-amino-3-(4-(aminomethyl)-4-methylpiperidin-1-yl)-1,2,4-triazin-6-yl)thio)-2-chlorophenyl)-2-hydroxy-4-oxo-6,7,8,9-tetrahydro-4H-pyrido[1,2-a]pyrimidine-3-carboxamide] displayed an IC50 of 12 nM.

Compound `CC1(CN)CCN(c2nnc(Sc3cccc(NC(=O)C4=C(O)NC5CCCCN5C4=O)c3Cl)c(N)n2)CC1` (stereo not drawn) [Example 37, N-(3-((5-amino-3-(4-(aminomethyl)-4-methylpiperidin-1-yl)-1,2,4-triazin-6-yl)thio)-2-chlorophenyl)-2-hydroxy-4-oxo-4,6,7,8,9,9a-hexahydro-1H-pyrido[1,2-a]pyrimidine-3-carboxamide] returned an IC50 of 6 nM.

In turn, `CC1(CN)CCN(c2nnc(Sc3cccc(NC(=O)c4c(O)nc5c6ccccc6ccn5c4=O)c3Cl)c(N)n2)CC1` [Example 39, N-(3-((5-amino-3-(4-(aminomethyl)-4-methylpiperidin-1-yl)-1,2,4-triazin-6-yl)thio)-2-chlorophenyl)-2-hydroxy-4-oxo-4H-pyrimido[2,1-a]isoquinoline-3-carboxamide] came in with an IC50 of 13 nM.

On to `CC1(CN)CCN(c2nnc(Sc3cccc(NC(=O)c4ccc5ccccn5c4=O)c3Cl)c(N)n2)CC1` [Example 40, N-(3-((5-amino-3-(4-(aminomethyl)-4-methylpiperidin-1-yl)-1,2,4-triazin-6-yl)thio)-2-chlorophenyl)-4-oxo-4H-quinolizine-3-carboxamide], for which it took 173 nM to reach half-maximal inhibition (IC50).

`CC1(N)CCN(c2nnc(Sc3cccc(NC(=O)c4c(O)nc5ccccn5c4=O)c3Cl)c(N)n2)CC1` [Example 41, N-(3-((5-amino-3-(4-amino-4-methylpiperidin-1-yl)-1,2,4-triazin-6-yl)thio)-2-chlorophenyl)-2-hydroxy-4-oxo-4H-pyrido[1,2-a]pyrimidine-3-carboxamide] yielded an IC50 of 11 nM.

`Nc1nc(N2CCC3(CCC[C@H]3N)CC2)nnc1Sc1cccc(NC(=O)c2c(O)nc3ccccn3c2=O)c1Cl` [Example 42, (R)-N-(3-((5-amino-3-(1-amino-8-azaspiro[4.5]decan-8-yl)-1,2,4-triazin-6-yl)thio)-2-chlorophenyl)-2-hydroxy-4-oxo-4H-pyrido[1,2-a]pyrimidine-3-carboxamide] registered an IC50 of 16 nM.

In turn, `Nc1nc(N2CCC3(CCC[C@H]3N)CC2)nnc1Sc1cccc(NC(=O)c2c(O)nc3n(c2=O)CCCC3)c1Cl` [Example 43, (R)-N-(3-((5-amino-3-(1-amino-8-azaspiro[4.5]decan-8-yl)-1,2,4-triazin-6-yl)thio)-2-chlorophenyl)-2-hydroxy-4-oxo-6,7,8,9-tetrahydro-4H-pyrido[1,2-a]pyrimidine-3-carboxamide] showed an IC50 of 1.5 nM.

`CC1(N)CCN(c2cnc(Sc3cccc(NC(=O)c4c(O)nc5n(c4=O)CCCC5)c3Cl)cn2)CC1` [Example 44, N-(3-((5-(4-amino-4-methylpiperidin-1-yl)pyrazin-2-yl)thio)-2-chlorophenyl)-2-hydroxy-4-oxo-6,7,8,9-tetrahydro-4H-pyrido[1,2-a]pyrimidine-3-carboxamide] registered an IC50 of 14 nM.

In turn, `CC1(CN)CCN(c2cnc(Sc3cccc(NC(=O)c4c(O)nc5n(c4=O)CCCC5)c3Cl)cn2)CC1` [Example 45, N-(3-((5-(4-(aminomethyl)-4-methylpiperidin-1-yl)pyrazin-2-yl)thio)-2-chlorophenyl)-2-hydroxy-4-oxo-6,7,8,9-tetrahydro-4H-pyrido[1,2-a]pyrimidine-3-carboxamide] returned an IC50 of 7 nM.

As to `CC1(N)CCN(c2nc3ccc(Sc4cccc(NC(=O)C5=C(O)CN(c6ccccc6)C5=O)c4)nc3[nH]2)CC1` [Example 46, N-(3-((2-(4-Amino-4-methylpiperidin-1-yl)-3H-imidazo[4,5-b]pyridin-5-yl)thio)phenyl)-4-hydroxy-2-oxo-1-phenyl-2,5-dihydro-1H-pyrrole-3-carboxamide], it took 70 nM to reach half-maximal inhibition (IC50).

`CC1(N)CCN(c2nc3ccc(Sc4cccc(NC(=O)C5=C(O)CN(c6ccccc6)C5=O)c4Cl)nc3[nH]2)CC1` [Example 47, N-(3-((2-(4-amino-4-methylpiperidin-1-yl)-3H-imidazo[4,5-b]pyridin-5-yl)thio)-2-chlorophenyl)-4-hydroxy-2-oxo-1-phenyl-2,5-dihydro-1H-pyrrole-3-carboxamide] gave an IC50 of 3 nM.

`O=C(Nc1cccc(Sc2ccc3nc(N4CCCCC4)[nH]c3n2)c1Cl)c1c(O)nc2ccccn2c1=O` [Example 48, N-(2-chloro-3-((2-(piperidin-1-yl)-3H-imidazo[4,5-b]pyridin-5-yl)thio)phenyl)-2-hydroxy-4-oxo-4H-pyrido[1,2-a]pyrimidine-3-carboxamide] yielded an IC50 of 61 nM.

For the compound `O=C(Nc1cccc(Sc2ccc3nc(N4CCCCC4)[nH]c3n2)c1Cl)c1c(O)c2nccnc2[nH]c1=O` [Example 49, N-(2-chloro-3-((2-(piperidin-1-yl)-3H-imidazo[4,5-b]pyridin-5-yl)thio)phenyl)-8-hydroxy-6-oxo-5,6-dihydropyrido[2,3-b]pyrazine-7-carboxamide], the concentration for half-maximal inhibition (IC50) is 36 nM.

On to `CC1(N)CCN(c2cnc(Sc3ccc(NC(=O)C4=C(O)CN(c5ccccc5)C4=O)cc3Cl)c(N)n2)CC1` [Example 50, N-(4-((3-Amino-5-(4-amino-4-methylpiperidin-1-yl)pyrazin-2-yl)thio)-3-chlorophenyl)-4-hydroxy-2-oxo-1-phenyl-2,5-dihydro-1H-pyrrole-3-carboxamide], for which the IC50 is 70 nM.

Broadly, the IC50 is the point on the concentration scale where inhibition reaches its midpoint. A higher IC50 goes with lower potency.
